Measurements from ChEMBL document CHEMBL3638971, “Fused pyrimidines” (2015).
Several values for one entry are separate records, joined by “and”; a condition that tells them apart may be missing. Equal values may be shown once.

Columns and labels:
[1] = molecular target: RAC-alpha serine/threonine-protein kinase (Homo sapiens, UniProt P31749); experiment: TR-FRET Assay: Akt1 inhibitory activity of compounds of the present invention may be quantified0 employing the Akt1 TR-FRET assay as described in the following paragraphs. His-tagged human recombinant kinase full-length Akt1 expressed in insect cells was purchased form Invitrogen (part number PV 3599). As substrate for the kinase reaction the biotinylated peptide biotin-Ahx-KKLNRTLSFAEPG (C-terminus in am- ide form) was used which can be purchased e.g. from the company Biosynthan GmbH (Berlin-Buch, Germany).For the assay 50 nl of a IOOfold concentrated solution of the test compound in DMSO was pipetted into a black low volume 384well microtiter plate (Greiner Bio- One, Frickenhausen, Germany), 2 ul of a solution of Akt1 in assay buffer [50 mM TRIS/HCI pH 7.5, 5 mM MgCI2, 1 mM dithiothreitol, 0.02% (v/v) Triton X-100 (Sigma)] were added and the mixture was incubated for 15 min at 22C to allow pre-binding of the test compounds to the enzyme before the start of the kinase reaction.
[2] = molecular target: RAC-beta serine/threonine-protein kinase (Homo sapiens, UniProt P31751); experiment: TR-FRET Assay: Akt2 inhibitory activity of compounds of the present invention was quantified employing the Akt2 TR-FRET assay as described in the following paragraphs.His-tagged human recombinant kinase full-length Akt2 expressed in insect cells and activated by PDK1 was purchased form Invitrogen (part number PV 3975). As substrate for the kinase reaction the biotinylated peptide biotin-Ahx- KKLNRTLSFAEPG (C-terminus in amide form) was used which can be purchased e.g. from the company Biosynthan GmbH (Berlinn-Buch, Germany). For the assay 50 nl of a 10Ofold concentrated solution of the test compound in DMSO was pipetted into a black low volume 384well microtiter plate (Greiner Bio- One, Frickenhausen, Germany), 2 ul of a solution of Akt2 in assay buffer [50 mM TRIS/HCI pH 7.5, 5 mM MgCI2, 1 mM dithiothreitol, 0.02% (v/v) Triton X-100 (Sigma)] were added and the mixture was incubated for 15 min at 22C to allow pre-binding of the test compounds to the enzyme before the start of the kinase reaction.
Chain of RAC-beta serine/threonine-protein kinase (P31751 whole entry): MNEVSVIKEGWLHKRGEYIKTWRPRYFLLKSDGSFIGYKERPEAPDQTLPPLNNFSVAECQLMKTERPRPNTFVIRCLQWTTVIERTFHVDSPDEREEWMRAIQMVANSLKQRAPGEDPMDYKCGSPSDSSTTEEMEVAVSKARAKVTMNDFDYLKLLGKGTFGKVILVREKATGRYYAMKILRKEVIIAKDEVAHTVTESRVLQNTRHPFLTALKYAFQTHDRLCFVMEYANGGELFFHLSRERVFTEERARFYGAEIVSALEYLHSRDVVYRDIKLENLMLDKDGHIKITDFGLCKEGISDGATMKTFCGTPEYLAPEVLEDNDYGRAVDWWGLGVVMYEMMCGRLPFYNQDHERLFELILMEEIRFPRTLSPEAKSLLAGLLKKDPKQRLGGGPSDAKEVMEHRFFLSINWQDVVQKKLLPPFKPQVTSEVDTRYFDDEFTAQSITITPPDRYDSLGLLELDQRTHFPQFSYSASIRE

Chain of RAC-alpha serine/threonine-protein kinase (P31749 whole entry): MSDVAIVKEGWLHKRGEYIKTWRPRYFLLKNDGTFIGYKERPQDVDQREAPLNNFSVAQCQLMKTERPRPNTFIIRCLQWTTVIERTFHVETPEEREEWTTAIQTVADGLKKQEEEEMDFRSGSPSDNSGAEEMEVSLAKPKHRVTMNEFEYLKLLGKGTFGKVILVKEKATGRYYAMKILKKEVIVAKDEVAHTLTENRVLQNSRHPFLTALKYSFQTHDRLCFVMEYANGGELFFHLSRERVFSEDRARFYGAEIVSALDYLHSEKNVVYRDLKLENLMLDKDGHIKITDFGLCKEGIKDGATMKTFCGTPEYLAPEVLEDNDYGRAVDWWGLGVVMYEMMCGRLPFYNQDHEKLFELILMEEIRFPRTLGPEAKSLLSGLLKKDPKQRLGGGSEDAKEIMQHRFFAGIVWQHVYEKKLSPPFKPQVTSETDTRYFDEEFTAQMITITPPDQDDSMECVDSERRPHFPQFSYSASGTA

SMILES | IC50 [1] | IC50 [2]
Cc1nc2nc(-c3ccc(CN4CC(c5n[nH]c(-c6ccccn6)n5)C4)cc3)c(-c3ccccc3)c(C)n2n1 | 7 nM | 17 nM
Cc1nc2nc(-c3ccc(CN4CC(c5n[nH]c(-c6ccccn6)n5)C4)cc3)c(-c3ccccc3)c(NC(C)C)n2n1 | 15 nM and 9 nM | 31 nM and 20 nM
CSc1nc2nc(-c3ccc(CN4CC(c5n[nH]c(-c6ccccn6)n5)C4)cc3)c(-c3ccccc3)cn2n1 | 5 nM | 100 nM
CSc1nc2nc(-c3ccc(CN4CCC(c5n[nH]c(-c6ccccn6)n5)CC4)cc3)c(-c3ccccc3)cn2n1 | 7 nM | 12 nM
CS(=O)(=O)c1nc2nc(-c3ccc(CN4CCC(c5n[nH]c(-c6ccccn6)n5)CC4)cc3)c(-c3ccccc3)cn2n1 | 54 nM | 102 nM

The remaining compounds from weak to strong by IC50 [1], led by results:

IC50 [1] | IC50 [2] | SMILES
32 nM | 374 nM | Cc1nc2nc(-c3ccc(CN4CC(c5n[nH]c(-c6ccccn6)n5)C4)cc3)c(-c3ccccc3)c(NC3CCC3)n2n1
11 nM | 21 nM | CNc1c(-c2ccccc2)c(-c2ccc(CN3CC(c4n[nH]c(-c5cccc(C)n5)n4)C3)cc2)nc2nc(C)nn12
10 nM | 8 nM | Cc1cccc(-c2nc(C3CN(Cc4ccc(-c5nc6nc(C)nn6c(C)c5-c5ccccc5)cc4)C3)n[nH]2)n1
5 nM | 4 nM | CSc1nc2nc(-c3ccc(CN4CCC(c5n[nH]c(-c6cccc(C)n6)n5)CC4)cc3)c(-c3ccccc3)cn2n1
